From US5756545A, “Biphenysulfonamide matrix metal alloproteinase inhibitors” (priority 1997, dated 1998)

Key:
Assay type in all cases: biochemical
[1] = target: gelatinase A-catalytic domain; test: gelatinase A catalytic domain hydrolysis of gelatin, GA CD (Gel); conditions: gelatin substrate
Excerpt: (§1) Table I below presents inhibitory activity for representative invention compounds of Formula I. In the table, GA CD (T) refers to gelatinase A-catalytic domain hydrolysis of thiopeptolide substrate; GA CD (Gel) refers to gelatinase A-catalytic domain hydrolysis of gelatin substrate; SCD (T) refers to stromelysin catalytic domain hydrolysis of thiopeptolide.

[2] = target: gelatinase A-catalytic domain; test: gelatinase A catalytic domain hydrolysis of thiopeptolide, GA CD (T); conditions: thiopeptolide substrate
Excerpt: as §1

[3] = target: T1, stromelysin catalytic domain (Homo sapiens, UniProt P08254); test: stromelysin catalytic domain hydrolysis of thiopeptolide, SCD (T); conditions: thiopeptolide substrate
T1 construct: stromelysin catalytic domain hydrolysis of thiopeptolide
T1 sequence (P08254 100-272 limits assumed): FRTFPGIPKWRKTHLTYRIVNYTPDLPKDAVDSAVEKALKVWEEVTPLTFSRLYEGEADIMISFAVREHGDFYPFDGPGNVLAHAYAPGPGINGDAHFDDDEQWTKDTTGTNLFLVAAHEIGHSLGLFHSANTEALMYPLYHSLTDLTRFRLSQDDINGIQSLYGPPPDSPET
Excerpt: as §1

full-length collagenase = target: T2, full-length collagenase (Homo sapiens, UniProt P03956); test: full-length collagenase hydrolysis of thiopeptolide substrate (FLC); conditions: full-length enzyme
T2 construct: full-length collagenase hydrolysis of thiopeptolide substrate (FLC)
T2 sequence (P03956 100-469): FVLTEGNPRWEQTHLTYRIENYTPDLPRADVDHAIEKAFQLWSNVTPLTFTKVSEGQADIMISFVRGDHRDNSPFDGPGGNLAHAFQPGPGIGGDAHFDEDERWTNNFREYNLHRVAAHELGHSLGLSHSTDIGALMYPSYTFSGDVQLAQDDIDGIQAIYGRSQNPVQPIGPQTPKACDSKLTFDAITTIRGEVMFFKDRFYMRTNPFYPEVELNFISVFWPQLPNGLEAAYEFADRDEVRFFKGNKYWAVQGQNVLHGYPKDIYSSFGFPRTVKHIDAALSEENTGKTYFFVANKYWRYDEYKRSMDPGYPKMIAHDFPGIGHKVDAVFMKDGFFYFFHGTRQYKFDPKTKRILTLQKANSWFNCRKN
Excerpt: The compounds were additionally evaluated for their ability to inhibit full-length collagenase hydrolysis of thiopeptolide substrate (FLC) and full-length gelatinase B (FLGB) hydrolysis of thiopeptolide.

Row | Compound | IC50 [1] [nM] | IC50 [2] [nM] | IC50 [3] [nM] | IC50 (full-length collagenase) [nM]
1 | CC(C)[C@H](NS(=O)(=O)c1ccc(-c2ccc(F)cc2)cc1)C(=O)O [Example 16, (S)-2-(4'-Fluoro-biphenyl-4-sulfonylamino)-3-methyl-butyric Acid] | 94 | 51 | – | –
2 | CC(C)[C@H](NS(=O)(=O)c1ccc(-c2ccc(Br)cc2F)cc1)C(=O)O [Example 8, (S)-2-(4'-Bromo-2'-fluoro-biphenyl-4-sulfonylamino)-3-methyl-butyric Acid] | 19 | 6 | – | –
3 | C[C@H](NS(=O)(=O)c1ccc(-c2ccc(Br)cc2)cc1)C(=O)O [Example 13, (S)-2-(4'-Bromo-biphenyl-4-sulfonylamino)-propionic Acid] | 22 | 19 | – | –
4 | COc1ccc(-c2ccc(S(=O)(=O)N[C@H](C(=O)O)C(C)C)cc2)cc1 [Example 15, (S)-2-(4'-Methoxy-biphenyl-4-sulfonylamino)-3-methyl-butyric Acid] | 14 | 2 | – | –
5 | O=C(O)[C@H](Cc1ccccc1)NS(=O)(=O)c1ccc(-c2ccc(Br)cc2)cc1 [Example 10, (S)-2-(4'-Bromo-biphenyl-4-sulfonylamino)-3-phenyl-propionic Acid] | 45 | 26 | – | –
6 | CC(C)C[C@H](NS(=O)(=O)c1ccc(-c2ccc(Br)cc2)cc1)C(=O)O [Example 14, (S)-2-(4'-Bromo-biphenyl-4-sulfonylamino)-4-methyl-pentanoic Acid] | 29 | 15 | – | –
7 | CC(C)[C@H](NS(=O)(=O)c1ccc(-c2ccc(C#N)cc2)cc1)C(=O)O [Example 5, (S)-2-(4'-Cyano-biphenyl-4-sulfonylamino)-3-methyl-butyric Acid] | 157 | 32 | – | –
8 | CC(C)[C@H](NS(=O)(=O)c1ccc(-c2ccc(C(F)(F)F)cc2)cc1)C(=O)O [Example 19, (S)-3-Methyl-2-(4'-trifluoromethyl-biphenyl-4-sulfonylamino)-butyric Acid] | – | – | 14 | –
9 | CC(C)[C@H](NS(=O)(=O)c1ccc(-c2cccc(Br)c2)cc1)C(=O)O [Example 7, (S)-2-(3'-Bromo-biphenyl-4-sulfonylamino)-3-methyl-butyric Acid] | 1300 | 731 | – | –
10 | O=C(O)CNS(=O)(=O)c1ccc(-c2ccc(Br)cc2)cc1 [Example 12, (4'-Bromo-biphenyl-4-sulfonylamino)-acetic Acid] | 79 | 21 | – | –
11 | CC(C)[C@H](NS(=O)(=O)c1ccc(-c2ccc(Cl)cc2)cc1)C(=O)O [Example 2, (S)-2-(4'-Chloro-biphenyl-4-sulfonylamino)-3-methyl-butyric Acid] | – | – | – | 7500
